Values quoted from earlier work in patent US20090247603A1, “Stabilized pharmaceutical compositions comprising an HMG-CoA reductase inhibitor” (Orbus Pharma, Inc., priority 2005, published 2009).

Conditions: following oral administration

CC(C)c1c(C(=O)Nc2ccccc2)c(-c2ccccc2)c(-c2ccc(F)cc2)n1CC[C@@H](O)C[C@@H](O)CC(=O)[O-].CC(C)c1c(C(=O)Nc2ccccc2)c(-c2ccccc2)c(-c2ccc(F)cc2)n1CC[C@@H](O)C[C@@H](O)CC(=O)[O-].[Ca+2] (relative stereo) [atorvastatin calcium, (R—(R*,R*))-2-(4-fluorophenyl)-[beta],[delta]-dihydroxy-5-(1-methylethyl)-3-phenyl-4((phenylamino)carbonyl)-1H-pyrole-1-heptanoic acid hemi calcium salt]
dose recovered in urine: Less than 2%
